# Measurements published in ChEMBL document CHEMBL1157106, “cis-Clerodane-type furanoditerpenoids from Tinospora crispa” (J Nat Prod, 2010).
# How the values were obtained:
# [1] = tested on: NIH3T3; test: Cytotoxicity against mouse 3T3 cells after 72 hrs by MTT assay; type: cell-based; details: NIH3T3, 72 h
# [2] = tested on: PC-3; test: cells; details: Homo sapiens, PC-3, 72 h
# Description: Cytotoxicity against human PC3 cells after 72 hrs by MTT assay
Structure (SMILES),IC50 [1] [µM],IC50 [2] [µM]
C[C@@]12C[C@@H](c3ccoc3)OC(=O)[C@@H]1C[C@@H]1OC(=O)[C@@]3(O)[C@@H](O[C@@H]4O[C@H](CO)[C@@H](O)[C@H](O)[C@H]4O)CC[C@@H]2[C@@]13C [BORAPETOSIDE A],> 10,> 10
COC(=O)C1=C[C@H](O)C[C@H]2[C@]3(C)C[C@@H](c4ccoc4)OC(=O)[C@H]3C[C@H](O[C@@H]3O[C@H](CO)[C@@H](O)[C@H](O)[C@H]3O)[C@@]12C [BORAPETOSIDE B],> 10,> 10
COC(=O)C1=CCC[C@H]2[C@]3(C)C[C@@H](c4ccoc4)OC(=O)[C@@H]3C[C@@H](O[C@@H]3O[C@H](CO)[C@@H](O)[C@H](O)[C@H]3O)[C@@]12C [BORAPETOSIDE C],> 10,> 10
COC(=O)C1=CCC[C@H]2[C@](C)(C[C@@H](O[C@@H]3O[C@H](CO[C@@H]4O[C@H](CO)[C@@H](O)[C@H](O)[C@H]4O)[C@@H](O)[C@H](O)[C@H]3O)c3ccoc3)[C@H]3C[C@H](OC3=O)[C@@]12C [BORAPETOSIDE D],> 10,> 10
C[C@@H]1C[C@@H]([C@H](O)CC2CC(=O)NC(=O)C2)C(=O)[C@@H](C)C1 [CYCLOHEXIMIDE],0.26,
COc1cccc2c1C(=O)c1c(O)c3c(c(O)c1C2=O)C[C@@](O)(C(=O)CO)C[C@@H]3O[C@H]1C[C@H](N)[C@H](O)[C@H](C)O1 [DOXORUBICIN],,0.912
